Reference: patent US20140127316A1, “PROPOLIS AND CAFFEIC ACID PHENETHYL ESTER AND USES THEREOF” (NEW YORK UNIVERSITY, priority 2011, published 2014)

Key:
NF-κB = conditions: cited from earlier work
[1] = system: normal human mammary epithelial cells; assay: Effect on normal mammary epithelial cells; type: cell-based
MDA-231 xenografts = MDA-231 xenografts in nude mice; type: in vivo
Description: (§1) Nude mice bearing MDA-231 xenografts were fed CAPE-containing diets and/or treated topically with CAPE, and tumors measured twice/week. bCSC (breast CSC) were isolated from MDA-231 cells and xenografts, and propagated as mammospheres. Cell growth was analyzed using MTT and cell cycle by flow cytometry. Apoptosis was determined by co-staining bCSC with Annexin V and propidium iodide.

[2] = system: multidrug resistance 1 (mdr-1) gene; assay: Gene expression microarray analysis; type: cell-based
[3] = system: epidermal growth factor receptor (EGFR); assay: Immunoblotting of EGFR in MDA-231 cells; type: cell-based; conditions: FIG. 4B
estrogen receptor (ER) [4] = assay: ER re-expression in MDA-231 cells by immunofluorescence and RT-PCR; type: cell-based; conditions: ER-negative MDA-231 cells, FIG. 4A
[5] = system: histone deacetylases (HDAC); assay: Western blotting of acetylated histone H3 in lymphoma cell lines; type: cell-based; conditions: RIVA, LY 1, SU-DHL6 lymphoma cell lines, FIG. 9
Description: FIG. 9 illustrates by Western Blotting CAPE induced hyperacetylation of Histone Proteins (Ac H3) in the indicated lymphoma cell lines (RIVA, LY 1, SU-DHL6).
(§2) These cell lines serve as in vitro breast cancer models. […] This typically signifies the inhibition of histone deacetylases and is used as a readout of this process via Western blotting. […] Further, FIGS. 3 and 4 provide additional evidence of the epigenetic changes that occur with CAPE and propolis resulting from HDAC inhibition. FIG. 3 depicts the downregulation of the estrogen receptor (ER) and progesterone receptor (PR) in MCF-7 cells and the downregulation of the epidermal growth factor receptor (EGFR) in MDA-231 cells (FIG. 4B). The re-expression of a previously silenced gene, (ER), a key function of HDAC inhibition, is depicted by the upregulation of the estrogen receptor in the ER-negative MDA-231 cell line (FIG. 4A). Furthermore, we have shown the HDAC inhibitor activity is not just restricted to breast cancer, but also in lymphoma (FIG. 9).

[6] = system: MDA-MB-231 (MDA-231) cells; assay: Cell growth of MDA-231 cells (MTT); type: cell-based, human
Description: as §1

[7] = system: bCSC isolated from MDA-231 cells; assay: Breast cancer stem cell (bCSC) clonal growth and self-renewal, mammospheres and soft agar; type: cell-based, human
Description: as §1

[8] = system: progesterone receptor (PR); assay: Immunoblotting of PR in MCF-7 cells; type: cell-based; conditions: FIG. 3
estrogen receptor (ER) [9] = assay: Immunoblotting of ER in MCF-7 cells; type: cell-based; conditions: FIG. 3
endothelial cells = conditions: cited from earlier work
VEGF = conditions: MDA-231 cells; cited from earlier work
p-Her2 = assay: Immunoblotting of phosphorylated Her2 in SKBR3 cells; type: cell-based; conditions: FIG. 5
Description: The HDAC inhibition seen in many BC cell lines by CAPE and propolis results in the decrease of EGFR over-expression and induction of ER in MDA-231 cells and decrease in ER and PR expression in MCF-7 cells (FIG. 3, 4). CAPE and Propolis cause a decrease in p-Her2, the activated form of Her 2 in SKBR3 cells, likely through intracellular signaling mechanisms (FIG. 5). […] To establish that the epigenetic effects of CAPE can be recapitulated in the natural product, we determined the concentration of CAPE in propolis by HPLC. […] Furthermore, the enhanced effects of HDAC inhibition with propolis, compared to CAPE alone, make it a suitable candidate for a clinical trial in any area of oncology.

[10] = system: histone deacetylases (HDAC); assay: Western blotting of acetylated histone proteins in breast cancer cell lines; type: cell-based, human; conditions: MDA-231 and MCF-7 cells, FIG. 2
Description: as §2

| Effect on normal cells [1] | SMILES | NF-κB inhibition (NF-κB) | Growth of MDA-231 xenografts (MDA-231 xenografts; dietary CAPE) | Tumor volume (MDA-231 xenografts; subsequent topical treatment after dietary CAPE) | mdr-1 gene expression [2] | EGFR expression [3] | ER expression (re-expression of silenced gene) (estrogen receptor (ER) [4]) | Acetylation of histone proteins (Ac H3) [5] | Growth of MDA-231 cells [6] | bCSC clonal growth [7] | bCSC and progenitor self-renewal (growth in soft agar) ([7]; pretreatment with 20 μM) | PR expression [8] | ER expression (estrogen receptor (ER) [9]) | Tubule formation (endothelial cells) | VEGF secretion (VEGF) | p-Her2 expression (p-Her2) | HDAC inhibition (accumulation of acetylated histone proteins) [10] |
| --- | --- | --- | --- | --- | --- | --- | --- | --- | --- | --- | --- | --- | --- | --- | --- | --- | --- |
| innocuous | O=C(/C=C/c1ccc(O)c(O)c1)OCCc1ccccc1 [CAPE, caffeic acid phenethyl ester] | inhibits | significantly inhibited | further decreased | down-regulates | downregulation | upregulation | hyperacetylation | inhibits growth | decreased | decreased growth in soft agar | downregulation | downregulation | inhibits | decreases | decrease | HDAC inhibitors |
| – | Cc1[nH]c2ccccc2c1CCNCc1ccc(/C=C/C(=O)NO)cc1 [LBH 589, reference compound] | – | – | – | – | – | re-expression | – | – | – | – | – | – | – | – | – | – |
